In one series the test system is KARPAS-299. As to the kind of experiment: cells. The conditions noted are these: Homo sapiens.
Series [1] relates to BaF3. As to the kind of experiment: cells. The conditions noted are these: Mus musculus.
Description: Antiproliferative activity against mouse BaF3 cells harbouring ALK L1196M mutant assessed as reduction in cell viability by Celltitre-Glo luminescent assay
Series [2] deals with BaF3. As to the kind of experiment: cells. As to conditions: Mus musculus. The source holds these as a separate data set.
Description: Antiproliferative activity against mouse BaF3 cells harbouring ALK C1156Y mutant assessed as reduction in cell viability by Celltitre-Glo luminescent assay
For series [3], the system named is BaF3. The series is described as follows: cells. As to conditions: Mus musculus. This is another data set of the same source.
Description: Antiproliferative activity against mouse BaF3 cells harbouring ALK wild type assessed as reduction in cell viability by Celltitre-Glo luminescent assay
Series [4] has as its system BaF3. As to the kind of experiment: Antiproliferative activity against mouse BaF3 cells harbouring CD74-ROS1-S1986F mutant assessed as reduction in cell viability incubated for 72 hrs by Celltitre-Glo luminescent assay. It is filed as functional, cell-based. As to conditions: BaF3, 72 h.
The subject of series [5] is BaF3. As to the kind of experiment: Antiproliferative activity against crizotinib resistant mouse BaF3 cells expressing EML4 fused ALK V1180L mutant assessed as reduction in cell viability incubated for 72 hrs by Celltitre-Glo luminescent assay. It is filed as functional, cell-based. As to conditions: BaF3, 72 h.
Series [6] relates to BaF3. As to the kind of experiment: Antiproliferative activity against crizotinib resistant mouse BaF3 cells expressing EML4 fused ALK L1152R mutant assessed as reduction in cell viability incubated for 72 hrs by Celltitre-Glo luminescent assay. Format: functional, cell-based. As to conditions: BaF3, 72 h.
The subject of series [7] is BaF3. As to the kind of experiment: Antiproliferative activity against mouse BaF3 cells harbouring CD74-ROS1-D2033N mutant assessed as reduction in cell viability incubated for 72 hrs by Celltitre-Glo luminescent assay. Format: functional, cell-based. The conditions noted are these: BaF3, 72 h.
Series [8] concerns BaF3. The series is described as follows: Antiproliferative activity against crizotinib resistant mouse BaF3 cells expressing EML4 fused ALK L1152P mutant assessed as reduction in cell viability incubated for 72 hrs by Celltitre-Glo luminescent assay. Format: functional, cell-based. As to conditions: BaF3, 72 h.
For series [9], the system named is BaF3. As to the kind of experiment: Antiproliferative activity against crizotinib resistant mouse BaF3 cells expressing EML4 fused ALK I1171T mutant assessed as reduction in cell viability incubated for 72 hrs by Celltitre-Glo luminescent assay. It is filed as functional, cell-based. As to conditions: BaF3, 72 h.
Series [10] in a line: cells. As to conditions: Mus musculus, BaF3, 72 h.
Series [11] has as its system BaF3. The series is described as follows: Antiproliferative activity against crizotinib resistant mouse BaF3 cells expressing EML4 fused ALK I1171N mutant assessed as reduction in cell viability incubated for 72 hrs by Celltitre-Glo luminescent assay. It is filed as functional, cell-based. The conditions noted are these: BaF3, 72 h.
Series [12] is described as follows: cells. As to conditions: Mus musculus, BaF3, 72 h. This is another data set of the same source.
Series [13] deals with BaF3. As to the kind of experiment: Antiproliferative activity against crizotinib resistant mouse BaF3 cells expressing EML4 fused ALK I1171S mutant assessed as reduction in cell viability incubated for 72 hrs by Celltitre-Glo luminescent assay. Format: functional, cell-based. The conditions noted are these: BaF3, 72 h.
In series [14] the test system is BaF3. The series is described as follows: Antiproliferative activity against mouse BaF3 cells harbouring SLC34A2-ROS1-L2026M mutant assessed as reduction in cell viability incubated for 72 hrs by Celltitre-Glo luminescent assay. Format: functional, cell-based. The conditions noted are these: BaF3, 72 h.
Series [15] concerns BaF3. The series is described as follows: Antiproliferative activity against mouse BaF3 cells harbouring CD74-ROS1-S1986Y mutant assessed as reduction in cell viability incubated for 72 hrs by Celltitre-Glo luminescent assay. It is filed as functional, cell-based. As to conditions: BaF3, 72 h.
Series [16] in a line: cells. The conditions noted are these: Mus musculus, Ba/F3 EML4-ALK-G1202R, 72 h.
Series [17] has as its system BaF3. As to the kind of experiment: Antiproliferative activity against crizotinib resistant mouse BaF3 cells expressing EML4 fused ALK T1151Tins mutant assessed as reduction in cell viability incubated for 72 hrs by Celltitre-Glo luminescent assay. It is filed as functional, cell-based. As to conditions: BaF3, 72 h.
Series [18] has as its system BaF3. The series is described as follows: Antiproliferative activity against crizotinib resistant mouse BaF3 cells expressing EML4 fused ALK F1174V mutant assessed as reduction in cell viability incubated for 72 hrs by Celltitre-Glo luminescent assay. It is filed as functional, cell-based. As to conditions: BaF3, 72 h.
Series [19] in a line: cells. The conditions noted are these: Mus musculus, BaF3, 72 h. This is another data set of the same source.
Series [20] in a line: cells. The conditions noted are these: Mus musculus, Ba/F3 EML4-ALK, 72 h.
Series [21] deals with BaF3. The series is described as follows: Antiproliferative activity against crizotinib resistant mouse BaF3 cells expressing EML4 fused ALK F1174C mutant assessed as reduction in cell viability incubated for 72 hrs by Celltitre-Glo luminescent assay. It is filed as functional, cell-based. As to conditions: BaF3, 72 h.
Series [22] in a line: Clearance in mouse at 1 mg/kg, iv. It is filed as ADME, organism-based. As to conditions: in vivo.
Series [23] is described as follows: Volume of distribution at steady state in mouse at 1 mg/kg, iv. It is filed as ADME, organism-based. As to conditions: in vivo, read-out: Vdss.
Series [24] can be described thus: Cmax in mouse at 10 mg/kg, po. The conditions noted are these: in vivo. Details: dose 10 mg/kg, route po. Format: ADME, organism-based.
Series [25] in a line: Oral bioavailability in mouse at 10 mg/kg. Format: ADME, organism-based. The conditions noted are these: in vivo.
Series [26] can be described thus: Half-life in mouse at 1 mg/kg, iv. Format: ADME, organism-based. As to conditions: in vivo.
Series [27] is described as follows: AUC (0 to last) in mouse at 10 mg/kg, po. Format: ADME, organism-based. Details: time 0 - last, dose 10 mg/kg, route po. As to conditions: in vivo.
The nature of series [28]: Clearance in Balb/c nude mouse at 1 mg/kg, iv. Format: ADME, organism-based. As to conditions: in vivo.

Description for KARPAS-299: Antiproliferative activity against human KARPAS-299 cells harbouring wild type ALK assessed as reduction in cell viability by Celltitre-Glo luminescent assay

Take `COc1cc(C2CCC3(CC2)CCN(C)CC3)ccc1Nc1ncc(Cl)c(Nc2ccccc2P(C)(C)=O)n1`: the IC50 – broadly, the concentration that inhibits the measured activity by half – in the series with KARPAS-299 was 36 nM; in the series with BaF3 [1] it was 27 nM; in the series on BaF3 [2], 30 nM; with BaF3 [3], 11 nM.
In the case of `COc1cc(N2CCC3(CCN(C)CC3)CC2)c(C)cc1Nc1ncc(Cl)c(Nc2ccccc2P(C)(C)=O)n1`, in the series on KARPAS-299, the IC50 is 62 nM.
On to `COc1cc(N2CCC(N3CCN(C)CC3)CC2)ccc1Nc1ncc(Cl)c(Nc2ccccc2P(C)(C)=O)n1` [BRIGATINIB], for which the IC50 is 20 nM with BaF3 [4]; 10 nM in the series on BaF3 [5]; 10 nM in the series with BaF3 [6]; 36 nM in the series with BaF3 [7]; 1 nM in the series on BaF3 [8]; 19 nM with BaF3 [9]. In addition, the IC50 was determined as 31 nM in the series “cells [10]”; 35 nM in the series with BaF3 [11]; 31 nM in the series “cells [12]”; 93 nM with BaF3 [13]; 48 nM in the series on BaF3 [14]; 12 nM in the series on BaF3 [15]. Also, the IC50 in “cells [16]” is 340 nM; in the series with BaF3 [17] it was 35 nM; in the series with BaF3 [18], 47 nM; in “cells [19]” it was 22 nM; in the series “cells [20]” it was 25 nM; with BaF3 [21], 98 nM.
Consider `COc1cc(N2CCC3(CC2)CNC3)ccc1Nc1ncc(Cl)c(Nc2ccccc2P(C)(C)=O)n1`, for which the clearance (in general, the volume of plasma or blood freed of the substance per unit of time) in [22] worked out at 49 mL/min/kg. This molecule yielded an IC50 in the series with KARPAS-299 of 60 nM. The Vd in series [23] was determined as 1.7 L/kg. The Cmax (as a rule, the peak of the concentration-time curve) in series [24] is 113 ng/mL. The bioavailability (usually dose-corrected exposure relative to a reference, in per cent) in [25] came out at 5.2%. Moreover, the half-life (usually the time in which the quantity being followed falls by half) in series [26] was 1.5 h. For the same molecule, the AUC(0-t) (in general, exposure summed from dosing to a finite time, without extrapolation to infinity) in series [27] turned out to be 219 ng·h/mL.
`CN1CCC2(CC1)CCN(c1ccc(Nc3ncc(Cl)c(Nc4ccccc4P(C)(C)=O)n3)c(OC(F)F)c1)CC2`: the concentration for half-maximal inhibition (IC50) with KARPAS-299 came to 15 nM; in the series with BaF3 [1] it was 39 nM; in the series on BaF3 [2] it was 36 nM; with BaF3 [3], 24 nM.
Turning to `COc1cc(N2CCC3(CCN(C)CC3)CC2)ccc1Nc1ncc(Cl)c(Nc2ccccc2P(C)(C)=S)n1`, the IC50 with KARPAS-299 turned out to be 30 nM; with BaF3 [1] it was 8 nM; with BaF3 [2], 12 nM; in the series with BaF3 [3], 5 nM. In [28], this molecule returned a clearance of 61 mL/min/kg.
On to `COc1cc(N2CCC3(CCN(C)CC3)CC2)c(Cl)cc1Nc1ncc(Cl)c(Nc2ccccc2P(C)(C)=O)n1`, for which the IC50 with KARPAS-299 amounted to 87 nM; in the series on BaF3 [1], 12 nM; in the series with BaF3 [2], 15 nM; in the series with BaF3 [3] it was 10 nM.
In the series on KARPAS-299, `COc1cc(N2CCC3(CCNC3)CC2)ccc1Nc1ncc(Cl)c(Nc2ccccc2P(C)(C)=O)n1` showed an IC50 of 78 nM.
As for `COc1cc(N2CCC3(CCN(C)CC3)CC2)ccc1Nc1ncc(Cl)c(Nc2ccc(F)cc2P(C)(C)=O)n1`, the IC50 with KARPAS-299 amounted to 20 nM; in the series on BaF3 [1], 18 nM; with BaF3 [2], 17 nM; in the series with BaF3 [3], 8 nM.
For the molecule `COc1cc(N2CCC3(CCN(C)CC3)CC2)c(F)cc1Nc1ncc(Cl)c(Nc2ccccc2P(C)(C)=O)n1`, the IC50 in the series on KARPAS-299 worked out at 15 nM.
With `COc1cc(N2CCC3(CCNCC3)CC2)ccc1Nc1ncc(Cl)c(Nc2ccccc2P(C)(C)=O)n1`, the clearance in series [22] stood at 20.1 mL/min/kg. Moreover, 77 nM corresponded to half-maximal inhibition in the series on KARPAS-299 (IC50). For the same molecule, the Vd in [23] was found to be 1.3 L/kg. The molecule also gave a Cmax in series [24] of 977 ng/mL. In series [25], this molecule had a bioavailability of 18.5%. In series [26], this molecule showed a half-life of 3.6 h. Further, the AUC(0-t) in series [27] worked out at 1630 ng·h/mL.
As for `COc1cc(N2CCC3(CNC3)C2)ccc1Nc1ncc(Cl)c(Nc2ccccc2P(C)(C)=O)n1`, in series [22], the clearance was 69 mL/min/kg. In the series with KARPAS-299, this molecule gave an IC50 of 126 nM. Besides, in series [23], the Vd was determined as 3.1 L/kg. Also, in series [24], the Cmax amounted to 28.7 ng/mL. Moreover, the bioavailability in series [25] was 1.2%. For the same molecule, in series [26], the half-life is 1.1 h. In series [27], this molecule had an AUC(0-t) of 27.7 ng·h/mL.

For the origin of these results see ChEMBL document CHEMBL5143665, “Discovery and preclinical evaluations of WX-0593, a novel ALK inhibitor targeting crizotinib-resistant mutations” (Bioorg Med Chem Lett, 2022).
